Structures can show the parent of a compound that is named as a salt.
Legend:
L1210 leukemia = assay: Therapeutic test on L1210 leukemia (oral, once a day); type: in vivo, BDF1 mice; conditions: Mus musculus, oral, read-out: % ILS (increase in life span); for ILS at 100 mg/kg/day / ILS at 200 mg/kg/day / ILS at 400 mg/kg/day: L1210, 720 h, > means some mice survived the test period (30 days); for ILS at 12.5 mg/kg/day / ILS at 25 mg/kg/day / ILS at 50 mg/kg/day / ILS at 6.25 mg/kg/day: L1210
Method: The L1210 leukemic cell suspension (1×10^5 cells/0.2 ml) was implanted intraperitoneally in BDF1 mice (males, 18 to 22 g, females, 16 to 20 g) (7 mice per group). From 24 hours after the implantation to the 5th day thereafter, the predetermined doses of the compounds to be tested were orally administered to the mice consecutively once a day. The compounds to be tested were dissolved or suspended in a phosphate-bufferedsalt solution (PBS) containing 0.5% carboxymethylcellulose, and given at a dose rate of 0.1 ml per 10 g of each mouse's body weight. To a control group, only the same solvent as used for the dissolution of the compounds to be tested was administered in the same way. The mean survival times (MST) for each group were calculated, and the corresponding increase in life span (%ILS) was obtained in accordance with the following formula, the results of which are shown in Table 1. [formula]

[1] = Acute toxicity test, oral (Test Example 5); design: species or system ICR-JCL mice; conditions: mouse, in vivo, neutralized ester, male mice, 14th day
Method: An ara-CMP ester was neutralized and dissolved in saline containing 0.5% of carboxymethylcellulose, and the resulting solution was orally administered to ICR-JCL mice (males, 24 to 26 g) in a dose of 0.2 ml per 10 g of each mouse's body weight.

[2] = Acute toxicity test, oral (Test Example 4); design: species or system ICR-JCL mice; conditions: mouse, in vivo, male mice, observed 7 days, reliability limit 95% in parentheses
Method: The C18-ara-CMP ester was dissolved in saline containing 0.5% carboxymethylcellulose, and given orally to ICR-JCL mice (males, 24 to 26 g) at a dose rate of 0.2 ml per 10 g of each mouse's body weight. […] The LD50 value was;

B16 melanoma = assay: Effectiveness against B16 melanoma (oral, 3 times a week); type: in vivo, BDF1 mice; design: Mean survival time (MST ± SE): unit not given here
Method: The B16 melanoma cells (1×10^6 cells) were implanted to the right side-abdominal hypoderms of BDF1 mice (male, 18 to 22 g). From the 13th day after the implantation to death the compounds to be tested were administered orally 3 times a week. The compounds to be tested were dissolved in a phosphate-buffered salt solution (PBS) containing 0.5% carboxymethyl-cellulose to a suitable concentration, and given to the mice at a dose rate of 0.1 ml per 10 g of each mouse's body weight. The increases in life span (%ILS) were calculated in accordance with the same formula as described in Test Example 1.

[3] = Acute toxicity test, intraperitoneal (Test Example 4); design: species or system ICR-JCL mice; conditions: mouse, in vivo; ip, male mice, 7th day; reliability limit 95% in parentheses
Method: The C18-ara-CMP ester dissolved in saline was administered intraperitoneally to ICR-JCL mice (males, 24 to 26 g) at a dose rate of 0.2 ml per 10 g of each mouse's body weight. The LD50 value obtained on the 7th day was;

L1210 leukemic cells [4] = assay: Experimental tumor proliferation model in the lymph nodes, once a day for 6 days; type: in vivo, BDF1 mice
Method: (§1) L1210 leukemic cells (1×10^6 cells/0.05 ml) were implanted to the right inner-thigh hypoderms of BDF1 mice (males, 18 to 22 g). From one day after the transplantation, the compounds to be tested were administered intraperitoneally or orally to the mice once a day consecutively for 6 days. The compounds being tested were dissolved in a phosphate-buffered salt solution (PBS) containing 0.5% carboxymethylcellulose to a suitable concentration, and administered to the mice at a dose rate of 0.1 ml per 10 g of each mouse's body weight. The increases in life span (%ILS) were calculated similarly as in Test Example 1.

L1210 leukemic cells [5] = assay: Experimental tumor proliferation model in the lymph nodes, single administration on sixth day; type: in vivo, BDF1 mice; conditions: once on sixth day
Method: as §1
Furthermore, in a similar manner, each of the test compounds was administered only once on the sixth day after implantation.

[6] = in combination with a cytidinedeaminase inhibitor such as tetrahydrouridine; cited from earlier work

| SMILES | ILS at 100 mg/kg/day (L1210 leukemia) [%] | ILS at 200 mg/kg/day (L1210 leukemia) [%] | ILS at 400 mg/kg/day (L1210 leukemia) [%] | ILS at 12.5 mg/kg/day (L1210 leukemia) [%] | ILS at 25 mg/kg/day (L1210 leukemia) [%] | ILS at 50 mg/kg/day (L1210 leukemia) [%] | LD50 at 336 h [1] [mg/kg] | ILS at 6.25 mg/kg/day (L1210 leukemia) [%] | Increase in life span (% ILS) (B16 melanoma; 100 mg/kg) [%] | Mean survival time (MST ± SE) (B16 melanoma; 100 mg/kg) | Increase in life span (% ILS) (B16 melanoma; 200 mg/kg) [%] | Mean survival time (MST ± SE) (B16 melanoma; 200 mg/kg) | Increase in life span (% ILS) (L1210 leukemic cells [4]; ip, 50 mg/kg/day) [%] | Mean survival time (MST ± SE) (L1210 leukemic cells [4]; ip, 50 mg/kg/day) | also measured |
| --- | --- | --- | --- | --- | --- | --- | --- | --- | --- | --- | --- | --- | --- | --- | --- |
| CCCCCCCCCCCCCCCCOP(=O)(O)OC[C@H]1O[C@@H](n2ccc(N)nc2=O)[C@@H](O)[C@@H]1O [C16-ara-CMP ester, ara-CMP-cetyl ester] | 88 | 137 | > 227 | 19 | 30 | 73 | 2190 | – | – | – | – | – | – | – | – |
| CCCCCCCC/C=C\CCCCCCCCOP(=O)(O)OC[C@H]1O[C@@H](n2ccc(N)nc2=O)[C@@H](O)[C@@H]1O [C18-1-ara-CMP ester, ara-CMP-oleyl ester] | 109 | 120 | > 159 | 39 | 54 | 81 | 3750 | 20 | – | – | – | – | – | – | – |
| CCCCCCCCCCCCCCCCCCOP(=O)(O)OC[C@H]1O[C@@H](n2ccc(N)nc2=O)[C@@H](O)[C@@H]1O [C18-ara-CMP ester, ara-CMP-stearyl ester] | > 200 | 53 | -7 | 52 | 69 | 114 | 1050 | 46 | 17 | 25.8 ± 1.98 | 22 | 26.8 ± 2.20 | 193 | 20.2 ± 0.53 | LD50 at 168 h [2]: 1400 mg/kg; Mean survival time (MST ± SE) (B16 melanoma; 50 mg/kg): 30.0 ± 1.30; Increase in life span (% ILS) (B16 melanoma; 50 mg/kg, * level of significance at 0.05% or lower): 36%; LD50 at 168 h [3]: 137 mg/kg; Increase in life span (% ILS) (L1210 leukemic cells [4]; ip, 25 mg/kg/day): 152%; Mean survival time (MST ± SE) (L1210 leukemic cells [4]; ip, 25 mg/kg/day): 17.4 ± 0.40; Increase in life span (% ILS) (L1210 leukemic cells [4]; po, 50 mg/kg/day): 165%; Mean survival time (MST ± SE) (L1210 leukemic cells [4]; po, 50 mg/kg/day): 18.3 ± 0.62; Increase in life span (% ILS) (L1210 leukemic cells [4]; po, 100 mg/kg/day): 188%; Mean survival time (MST ± SE) (L1210 leukemic cells [4]; po, 100 mg/kg/day): 19.9 ± 0.48; Increase in life span (% ILS) (L1210 leukemic cells [5]; po, 250 mg/kg): 92%; Mean survival time (MST ± SE) (L1210 leukemic cells [5]; po, 250 mg/kg): 14.0 ± 0.53; Increase in life span (% ILS) (L1210 leukemic cells [5]; po, 500 mg/kg): 137%; Mean survival time (MST ± SE) (L1210 leukemic cells [5]; po, 500 mg/kg): 17.3 ± 0.49 |
| CCCCCCCCCCCCCCCCCCCCOP(=O)(O)OC[C@H]1O[C@@H](n2ccc(N)nc2=O)[C@@H](O)[C@@H]1O [C20-ara-CMP ester, ara-CMP-eicosyl ester] | 126 | > 199 | – | 39 | 60 | 90 | 2720 | 19 | – | – | – | – | – | – | – |
| Nc1ccn([C@@H]2O[C@H](CO)[C@@H](O)[C@@H]2O)c(=O)n1 [ara-C (hydrochloride), 1-β-D-arabinofuranosyl cytosine, reference compound] | 22 | 34 | 67 | – | – | – | – | – | 22 | 26.8 ± 1.50 | -5 | 21.0 ± 1.76 | 101 | 13.9 ± 0.59 | Increase in life span (% ILS) (B16 melanoma; 400 mg/kg): 1%; Mean survival time (MST ± SE) (B16 melanoma; 400 mg/kg): 22.2 ± 2.82; Increase in life span (% ILS) (L1210 leukemic cells [4]; ip, 100 mg/kg/day): 110%; Mean survival time (MST ± SE) (L1210 leukemic cells [4]; ip, 100 mg/kg/day): 14.5 ± 0.62; Increase in life span (% ILS) (L1210 leukemic cells [5]; ip, 250 mg/kg): 36%; Mean survival time (MST ± SE) (L1210 leukemic cells [5]; ip, 250 mg/kg): 9.9 ± 0.13; Increase in life span (% ILS) (L1210 leukemic cells [5]; ip, 500 mg/kg): 49%; Mean survival time (MST ± SE) (L1210 leukemic cells [5]; ip, 500 mg/kg): 10.9 ± 0.23 |
| Nc1ccn([C@@H]2O[C@H](CO)[C@@H](O)[C@@H]2O)c(=O)n1 [ara-C, 1-β-D-arabinofuranosyl cytosine] | – | – | – | – | – | – | – | – | – | – | – | – | – | – | effectiveness of oral administration [6]: effective in combination with a cytidinedeaminase inhibitor such as tetrahydrouridine |
